Earlier results, collected in patent US9782610B2, “Nontoxic, non-endocrine disrupting, cytoprotective, UV-radiation resistant sunblock compositions” (3rd Rock Sunblock, Inc., priority 2007, dated 2017).

Experiments:
[1] = tested on: cancer cells
[2] = tested on: estrogenic activity; conditions: uterine wet weight, cell height, cell proliferation assays

SMILES	activity in cells / cancer cell growth [1]	estrogenicity [2]
COc1ccc(C(=O)c2ccccc2)c(O)c1 [Benzophenone-3]	made cancer cells grow more rapidly	highly estrogenic
Cc1ccc(C=C2C(=O)C3(C)CCC2C3(C)C)cc1 (stereo not drawn) [Example 4-MBC, 3-(4-methylbenxylidene) camphor]	made cancer cells grow more rapidly	highly estrogenic
CC1CC(OC(=O)c2ccccc2O)CC(C)(C)C1 (stereo not drawn) [homosalate]	made cancer cells grow more rapidly	
CCCCC(CC)COC(=O)c1ccc(N(C)C)cc1 (stereo not drawn) [octyl-dimethyl-PABA]	made cancer cells grow more rapidly	
